{"source": "patent US20130072404A1", "about": "“APPARATUS AND PROCESSES FOR GENERATING VARIABLE CONCENTRATION OF SOLUTES IN MICRODROPLETS” (UNIVERSITE DE STRASBOURG, priority 2009, published 2013)", "key": {"β-galactosidase [1]": {"target": "T1, β-galactosidase (Escherichia coli, UniProt P00722)", "assay": "Microplate dose-response assay, β-galactosidase (Example 2)", "assay_type": "biochemical", "design": "purchased Sigma-Aldrich Co", "conditions": "8-point microplate assay, n=10; read-out: IC50 obtained in microplate", "method": "For β-galactosidase, a solution of the inhibitor PETG was diluted to 200 μM in PBS and then further diluted in 3-fold serial dilution steps seven times (200 μM down to […]). 10 μl aliquots of each dilution were pipetted into the wells of a black, opaque 384-well plate (Corning, Inc., New York, USA). A stock of the substrate FDG was diluted to 240 μM in PBS and 10 μl aliquots were added to the wells. The reactions were initiated by adding 20 μl of 10 U/ml β-galactosidase, in PBS containing 2 g/l BSA, to each well. A SpectraMax M5 microplate reader (Molecular Devices, Inc., California, USA) was used to monitor the reactions at 25° C. with an excitation wavelength of 490 nm, an emission wavelength of 514 nm (automatic cut-off), and a 15 second period between measurements. The initial rate of each reaction was determined and the percentage inhibition of β-galactosidase activity was calculated by scaling this initial rate between a blank (no enzyme, equivalent to 100% inhibition) and a positive control (no inhibitor, equivalent to 0% inhibition) in the same manner as Eq. 1 (see above). When required, the 4-parameter Hill function was fitted to a plot of percentage inhibition against logged inhibitor concentration to determine the IC50 of PETG."}, "β-galactosidase [2]": {"target": "T1, β-galactosidase", "assay": "High-resolution dose-response screening of β-galactosidase inhibition in droplets (Example 2), FDG substrate", "assay_type": "biochemical, E. coli", "design": "purchased Grade VIII", "conditions": "for IC50: 4-parameter Hill fit", "method": "PBS was pumped through the autosampler at a rate of 200 μl/hour. On-chip, this flow was combined with solutions of enzyme and substrate, both flowing at 100 μl/hour. The enzyme solution was 20 U/ml of E. coli Grade VIII β-galactosidase in PBS containing 4 g/l BSA. The substrate solution was 240 μM FDG and 400 nM sodium fluorescein in PBS. The combined aqueous flow was segmented into droplets by the oil/surfactant solution flowing at a rate of 400 μl/hour. The optical setup was positioned just before the delay line and individual droplets were discriminated by green fluorescence. The measurement at this point provided a “pseudo blank” (no enzyme activity, equivalent to 100% inhibition) for the inhibition calculations later on: droplets with zero activity were not observed to change fluorescence between production and any measurement point in the delay line (FIG. 17).\nThe optical setup was repositioned to the 30-second measurement point and the droplets were analyzed continuously. Meanwhile, the autosampler was used to load 1 μl from each well of a 96-well plate into the PBS stream running through the dispersion capillary. Each well contained 20 μl of 100 μM DY-682 in PBS, plus one of four different concentrations of the inhibitor 2-phenylethyl β-D-thiogalactoside (PETG; Invitrogen Corp., California, USA): 600 μM (“high”), 120 μM (“medium”), 24 μM (“low”), or zero. As each Gaussian-like pulse of DY-682 and PETG, mixed with the reaction components and segmented into droplets, arrived at the optical detector, a dose-response profile was recorded.\nOffline, a Python script was used to group the droplets in the front edge of each Gaussian-like pulse by injection (˜10,000 droplets); these droplets are referred to as the injection's “dose-response droplets”. 1 second's worth of droplets directly preceding each Gaussian-like pulse were also stored (˜800 droplets). The mean green fluorescence of these droplets provided the “control” value (0% inhibition) for the injection and this value was used with the pseudo blank value (corresponding to 100% inhibition) to calculate the percentage inhibition in the subsequent dose-response droplets. […] The corrected green signal was then used to calculate the proportion of inhibition (I) in each droplet using the following equation: […]\nwhere M is corrected measured fluorescence, B is the pseudo blank value, and C is the control value. In parallel, the NIR fluorescence signal for each droplet was used to calculate the concentration of co-injected compound. […]\nFor each of the 16 “medium” injections the quality of the assay was determined by calculating the Z-factor (Zhang et al., 1999)."}}, "data": [{"compound": "OC[C@H]1O[C@@H](SCCc2ccccc2)[C@H](O)[C@@H](O)[C@H]1O", "note": "[PETG, phenylethyl β-D-thiogalactopyranoside]", "values": [{"measurement": "IC50", "setting": "β-galactosidase [1]", "result": 2.72, "unit": "µM"}, {"measurement": "inhibition", "setting": "β-galactosidase [2]; droplets containing 50 μM PETG", "result": 97.5, "unit": "%"}, {"measurement": "IC50", "setting": "β-galactosidase [2]; mean IC50, high (600 μM) injected PETG", "result": 1.98, "unit": "µM"}, {"measurement": "IC50", "setting": "β-galactosidase [2]; mean IC50, low (24 μM) injected PETG", "result": 1.98, "unit": "µM"}, {"measurement": "IC50", "setting": "β-galactosidase [2]; mean IC50, medium (120 μM) injected PETG, n=16", "result": 2.06, "unit": "µM"}]}]}
